{"source": "paper PMC5218480", "about": "(PLoS ONE, 2017)", "system": "MV-4-11 cells", "experiment": "Gene expression microarray analysis (Affymetrix PrimeView) and GSEA", "format": "cell-based, human", "design": "RFU PODN (11730768_x_at) / Fold change /veh PODN (11730768_x_at) / RFU LINC00158 (11744669_a_at) / Fold change /veh LINC00158 (11744669_a_at) / RFU DUSP10 (11751237_a_at) / Fold change /veh DUSP10 (11751237_a_at) / RFU ID3 (11757404_x_at) / Fold change /veh ID3 (11757404_x_at) / RFU PLEKHG5 (11737974_s_at) / Fold change /veh PLEKHG5 (11737974_s_at) / RFU LRRC4B (11730491_at) / Fold change /veh LRRC4B (11730491_at) / RFU GIMAP4 (11747438_a_at) / Fold change /veh GIMAP4 (11747438_a_at) / RFU KRT8 (11758183_x_at) / Fold change /veh KRT8 (11758183_x_at) / RFU CNN1 (11734310_a_at) / Fold change /veh CNN1 (11734310_a_at) / RFU VPS37D (11726825_at) / Fold change /veh VPS37D (11726825_at) / RFU C10orf10 (11716522_x_at) / Fold change /veh C10orf10 (11716522_x_at) / RFU KIR2DL2 /// KIR2DL4 /// KIR2DL5A /// KIR2DL5B /// KIR2DS1 /// KIR2DS2 /// KIR2DS3 /// KIR2DS4 /// KIR3DL3 /// KIR3DL3 /// KIR3DS1 (11738374_at) / Fold change /veh KIR2DL2 /// KIR2DL4 /// KIR2DL5A /// KIR2DL5B /// KIR2DS1 /// KIR2DS2 /// KIR2DS3 /// KIR2DS4 /// KIR3DL3 /// KIR3DL3 /// KIR3DS1 (11738374_at) / RFU C1QL1 (11718748_at) / Fold change /veh C1QL1 (11718748_at) / RFU TMPRSS4 (11747572_a_at) / Fold change /veh TMPRSS4 (11747572_a_at) / RFU HAMP (11756126_x_at) / Fold change /veh HAMP (11756126_x_at) / RFU RNFT2 (11725882_a_at) / Fold change /veh RNFT2 (11725882_a_at) / RFU NR4A2 (11747474_a_at) / Fold change /veh NR4A2 (11747474_a_at) / RFU ABCC12 (11746883_a_at) / Fold change /veh ABCC12 (11746883_a_at) / RFU TMEM136 (11760407_x_at) / Fold change /veh TMEM136 (11760407_x_at) / RFU CLDN22 /// WWC2 (11732394_at) / Fold change /veh CLDN22 /// WWC2 (11732394_at) / RFU HLA-DPB1 (11760878_x_at) / Fold change /veh HLA-DPB1 (11760878_x_at) / RFU SPINT1 (11716480_a_at) / Fold change /veh SPINT1 (11716480_a_at) / RFU GAP43 (11754022_s_at) / Fold change /veh GAP43 (11754022_s_at) / RFU A4GNT (11735810_at) / Fold change /veh A4GNT (11735810_at) / RFU PRB3 (11715151_x_at) / Fold change /veh PRB3 (11715151_x_at) / RFU TUBB4B (11761932_at) / Fold change /veh TUBB4B (11761932_at) / RFU CAPN14 (11732068_a_at) / Fold change /veh CAPN14 (11732068_a_at) / RFU TMCC2 (11721928_a_at) / Fold change /veh TMCC2 (11721928_a_at) / RFU IRGQ (11745062_a_at) / Fold change /veh IRGQ (11745062_a_at) / RFU FAM174B (11720279_a_at) / Fold change /veh FAM174B (11720279_a_at) / RFU TMPRSS4 (11748680_a_at) / Fold change /veh TMPRSS4 (11748680_a_at) / RFU FAM212B (11763350_a_at) / Fold change /veh FAM212B (11763350_a_at) / RFU PLEKHG5 (11743358_a_at) / Fold change /veh PLEKHG5 (11743358_a_at) / RFU ZSCAN30 (11745921_a_at) / Fold change /veh ZSCAN30 (11745921_a_at) / RFU CMKLR1 (11741424_a_at) / Fold change /veh CMKLR1 (11741424_a_at) / RFU LOC101060620 /// MAPK8IP1 (11723275_at) / Fold change /veh LOC101060620 /// MAPK8IP1 (11723275_at) / RFU SPTSSB (11747773_x_at) / Fold change /veh SPTSSB (11747773_x_at) / RFU PRSS12 (11739890_at) / Fold change /veh PRSS12 (11739890_at) / RFU BIN1 (11741810_x_at) / Fold change /veh BIN1 (11741810_x_at) / RFU WNT11 (11732464_a_at) / Fold change /veh WNT11 (11732464_a_at) / RFU C10orf10 (11716521_a_at) / Fold change /veh C10orf10 (11716521_a_at) / RFU C5orf56 (11738089_at) / Fold change /veh C5orf56 (11738089_at) / RFU CYB561 (11721691_x_at) / Fold change /veh CYB561 (11721691_x_at) / RFU ANKRD19P (11752326_a_at) / Fold change /veh ANKRD19P (11752326_a_at) / RFU OR2T12 /// OR2T33 /// OR2T8 (11738714_s_at) / Fold change /veh OR2T12 /// OR2T33 /// OR2T8 (11738714_s_at) / RFU VCAN (11748164_a_at) / Fold change /veh VCAN (11748164_a_at) / RFU JSRP1 (11732532_at) / Fold change /veh JSRP1 (11732532_at) / RFU KRTAP10-11 (11738290_x_at) / Fold change /veh KRTAP10-11 (11738290_x_at) / RFU MYO3A (11730013_a_at) / Fold change /veh MYO3A (11730013_a_at) / RFU EBF3 (11725865_a_at) / Fold change /veh EBF3 (11725865_a_at) / RFU CAMK2N1 (11719241_x_at) / Fold change /veh CAMK2N1 (11719241_x_at) / RFU C5orf56 (11738088_a_at) / Fold change /veh C5orf56 (11738088_a_at) / RFU OLFML3 (11715873_a_at) / Fold change /veh OLFML3 (11715873_a_at) / RFU LOC100653217 /// NTM (11731650_a_at) / Fold change /veh LOC100653217 /// NTM (11731650_a_at) / RFU MAPK11 (11762145_a_at) / Fold change /veh MAPK11 (11762145_a_at) / RFU FIZ1 (11724087_x_at) / Fold change /veh FIZ1 (11724087_x_at) / RFU OASL (11726364_x_at) / Fold change /veh OASL (11726364_x_at) / RFU SOX15 (11748057_x_at) / Fold change /veh SOX15 (11748057_x_at) / RFU CD79A (11719716_a_at) / Fold change /veh CD79A (11719716_a_at) / RFU HIST1H1D (11736915_at) / Fold change /veh HIST1H1D (11736915_at) / RFU CASKIN2 (11723855_a_at) / Fold change /veh CASKIN2 (11723855_a_at) / RFU LOC730098 (11760151_x_at) / Fold change /veh LOC730098 (11760151_x_at) / RFU OR4N2 (11742367_at) / Fold change /veh OR4N2 (11742367_at) / RFU PRRT2 (11749266_a_at) / Fold change /veh PRRT2 (11749266_a_at) / RFU SNX32 (11753110_a_at) / Fold change /veh SNX32 (11753110_a_at) / RFU CDHR5 (11726645_a_at) / Fold change /veh CDHR5 (11726645_a_at) / RFU RCAN1 (11760418_a_at) / Fold change /veh RCAN1 (11760418_a_at) / RFU FAM167A (11723789_a_at) / Fold change /veh FAM167A (11723789_a_at) / RFU FAM26E (11764081_at) / Fold change /veh FAM26E (11764081_at) / RFU ISYNA1 (11749810_s_at) / Fold change /veh ISYNA1 (11749810_s_at) / RFU ACY1 (11761880_at) / Fold change /veh ACY1 (11761880_at) / RFU 11764098_at / Fold change /veh 11764098_at / RFU SAMD14 (11745864_x_at) / Fold change /veh SAMD14 (11745864_x_at) / RFU NPB (11741838_a_at) / Fold change /veh NPB (11741838_a_at) / RFU TMPRSS6 (11731388_a_at) / Fold change /veh TMPRSS6 (11731388_a_at) / RFU KRTAP10-2 (11738614_at) / Fold change /veh KRTAP10-2 (11738614_at) / RFU ARHGAP8 /// PRR5-ARHGAP8 (11727945_x_at) / Fold change /veh ARHGAP8 /// PRR5-ARHGAP8 (11727945_x_at) / RFU KRTAP5-7 /// NADSYN1 (11734609_at) / Fold change /veh KRTAP5-7 /// NADSYN1 (11734609_at) / RFU RASL12 (11751679_a_at) / Fold change /veh RASL12 (11751679_a_at) / RFU CDKN2B (11736163_a_at) / Fold change /veh CDKN2B (11736163_a_at) / RFU PRF1 (11729649_at) / Fold change /veh PRF1 (11729649_at) / RFU, ZNF638 /// ZNF638-IT1 / Fold change vs veh, ZNF638 /// ZNF638-IT1 / RFU, PANK3 / Fold change vs veh, PANK3 / RFU, SH3YL1 / Fold change vs veh, SH3YL1 / RFU, ZEB2 / Fold change vs veh, ZEB2 / RFU, NRIP1 / Fold change vs veh, NRIP1 / RFU, PTTG1IP / Fold change vs veh, PTTG1IP / RFU, CAPN2 / Fold change vs veh, CAPN2 / RFU, MED14 / Fold change vs veh, MED14 / RFU, SNORA58 / Fold change vs veh, SNORA58 / RFU, C1orf63 / Fold change vs veh, C1orf63 / RFU, LRRFIP1 / Fold change vs veh, LRRFIP1 / RFU, NDUFAF7 / Fold change vs veh, NDUFAF7 / RFU, SLC12A2 / Fold change vs veh, SLC12A2 / RFU, IBTK / Fold change vs veh, IBTK / RFU, ESF1 / Fold change vs veh, ESF1 / Fold change vs veh, TMEM50B / RFU, TAOK1 / Fold change vs veh, TAOK1 / RFU, ACBD3 / Fold change vs veh, ACBD3 / RFU, TMA16 / Fold change vs veh, TMA16 / RFU, RWDD3 / Fold change vs veh, RWDD3 / RFU, BCAT1 / Fold change vs veh, BCAT1 / RFU, EDEM3 / Fold change vs veh, EDEM3 / RFU, TMEM33 / Fold change vs veh, TMEM33 / RFU, WDR75 / Fold change vs veh, WDR75 / RFU, AHCTF1 / Fold change vs veh, AHCTF1 / RFU, TFRC / Fold change vs veh, TFRC / RFU, ZDHHC17 / Fold change vs veh, ZDHHC17 / RFU, NOM1 / Fold change vs veh, NOM1 / RFU, ARL8B / Fold change vs veh, ARL8B / RFU, ZBTB11 / Fold change vs veh, ZBTB11 / RFU, TAMM41 / Fold change vs veh, TAMM41 / RFU, KIAA1704 /// LOC100996395 / Fold change vs veh, KIAA1704 /// LOC100996395 / RFU, ING1 / Fold change vs veh, ING1 / RFU, TRMT61B / Fold change vs veh, TRMT61B / RFU, FUBP3 / Fold change vs veh, FUBP3 / RFU, TP53 / Fold change vs veh, TP53 / RFU, TNKS2 / Fold change vs veh, TNKS2 / RFU, ZFP14 / Fold change vs veh, ZFP14 / RFU, ACTR2 / Fold change vs veh, ACTR2 / RFU, PPP3R1 / Fold change vs veh, PPP3R1 / RFU, PIK3R1 / Fold change vs veh, PIK3R1 / RFU, HNRNPA1 / Fold change vs veh, HNRNPA1 / RFU, RNF170 / Fold change vs veh, RNF170 / RFU, ZNF28 / Fold change vs veh, ZNF28 / RFU, RNGTT / Fold change vs veh, RNGTT / RFU, OGT / Fold change vs veh, OGT / RFU, BRD1 / Fold change vs veh, BRD1 / RFU, MARS / Fold change vs veh, MARS / RFU, ZNF655 / Fold change vs veh, ZNF655 / RFU, FAHD1 / Fold change vs veh, FAHD1 / RFU, BDP1 / Fold change vs veh, BDP1 / RFU, LRRCC1 / Fold change vs veh, LRRCC1 / RFU, ARID1A / Fold change vs veh, ARID1A / RFU, ZNF146 / Fold change vs veh, ZNF146 / RFU, ZNF330 / Fold change vs veh, ZNF330 / RFU, GPN3 / Fold change vs veh, GPN3 / RFU, C9orf123 / Fold change vs veh, C9orf123 / RFU, N4BP2L2 / Fold change vs veh, N4BP2L2 / RFU, ARFIP1 / Fold change vs veh, ARFIP1 / RFU, FAM179B / Fold change vs veh, FAM179B / RFU, BCL10 / Fold change vs veh, BCL10 / RFU, UHRF1BP1L / Fold change vs veh, UHRF1BP1L / RFU, BET1 / Fold change vs veh, BET1 / RFU, CNOT2 / Fold change vs veh, CNOT2 / RFU, ZNF268 / Fold change vs veh, ZNF268 / Fold change vs veh, ZNF507 / RFU, DGCR2 / Fold change vs veh, DGCR2 / RFU, WDSUB1 / Fold change vs veh, WDSUB1 / Fold change vs veh, HSP90B1 /// MIR3652 / RFU, ADSS / Fold change vs veh, ADSS / RFU, GK / Fold change vs veh, GK / RFU, ZNF148 / Fold change vs veh, ZNF148 / RFU, TAF9 / Fold change vs veh, TAF9 / RFU, SLC1A5 / Fold change vs veh, SLC1A5 / RFU, SLMO2 / Fold change vs veh, SLMO2 / RFU, ABCC4 / Fold change vs veh, ABCC4 / RFU, LOC101060439 /// RAP1B / Fold change vs veh, LOC101060439 /// RAP1B / RFU, RFX7 / Fold change vs veh, RFX7 / RFU, GTPBP10 / Fold change vs veh, GTPBP10 / RFU, CNEP1R1 / Fold change vs veh, CNEP1R1 / RFU, BIVM-ERCC5 /// ERCC5 / Fold change vs veh, BIVM-ERCC5 /// ERCC5 / RFU, ILF3 / Fold change vs veh, ILF3 / RFU 11762660_at / Fold change /veh 11762660_at / RFU VCAN (11757783_s_at) / Fold change /veh VCAN (11757783_s_at) / RFU DDX43 (11728927_at) / Fold change /veh DDX43 (11728927_at) / RFU KRT8 (11758188_x_at) / Fold change /veh KRT8 (11758188_x_at) / RFU NKD1 (11759106_at) / Fold change /veh NKD1 (11759106_at) / RFU SRD5A1 (11742802_a_at) / Fold change /veh SRD5A1 (11742802_a_at) / RFU TPSAB1 /// TPSB2 (11721975_s_at) / Fold change /veh TPSAB1 /// TPSB2 (11721975_s_at) / RFU GSTM3 (11746129_a_at) / Fold change /veh GSTM3 (11746129_a_at) / RFU IL23R (11737362_x_at) / Fold change /veh IL23R (11737362_x_at) / RFU TMEM51 (11727254_a_at) / Fold change /veh TMEM51 (11727254_a_at) / RFU PIWIL2 (11732686_x_at) / Fold change /veh PIWIL2 (11732686_x_at) / RFU ORM1 (11744905_x_at) / Fold change /veh ORM1 (11744905_x_at) / RFU CCDC152 (11743942_at) / Fold change /veh CCDC152 (11743942_at) / RFU ECM1 (11717891_a_at) / Fold change /veh ECM1 (11717891_a_at) / RFU IL23R (11748794_a_at) / Fold change /veh IL23R (11748794_a_at) / RFU TNFAIP8L3 (11732012_x_at) / Fold change /veh TNFAIP8L3 (11732012_x_at) / RFU MBOAT4 (11741988_at) / Fold change /veh MBOAT4 (11741988_at) / RFU 11764193_at / Fold change /veh 11764193_at / RFU TMEM53 (11763286_at) / Fold change /veh TMEM53 (11763286_at) / RFU MAGEB2 (11727129_at) / Fold change /veh MAGEB2 (11727129_at) / RFU TMEM200A (11744735_a_at) / Fold change /veh TMEM200A (11744735_a_at) / RFU CCDC152 (11751479_a_at) / Fold change /veh CCDC152 (11751479_a_at) / RFU FAM211A (11726209_a_at) / Fold change /veh FAM211A (11726209_a_at) / RFU RGS16 (11746705_a_at) / Fold change /veh RGS16 (11746705_a_at) / RFU VCAN (11755009_s_at) / Fold change /veh VCAN (11755009_s_at) / RFU RHOB (11743442_s_at) / Fold change /veh RHOB (11743442_s_at) / RFU RGS16 (11720943_a_at) / Fold change /veh RGS16 (11720943_a_at) / RFU RGS16 (11720944_at) / Fold change /veh RGS16 (11720944_at) / RFU, VPS4B / Fold change vs veh, VPS4B / RFU, CREB1 / Fold change vs veh, CREB1 / RFU, DNAJC13 / Fold change vs veh, DNAJC13 / RFU, GNAQ / Fold change vs veh, GNAQ / RFU, CDK5R1 / Fold change vs veh, CDK5R1 / RFU, ZRANB3 / Fold change vs veh, ZRANB3 / RFU, CUL4A / Fold change vs veh, CUL4A / RFU, CCNY / Fold change vs veh, CCNY / RFU, UFL1 / Fold change vs veh, UFL1 / RFU, COG3 / Fold change vs veh, COG3 / RFU, DIAPH2 / Fold change vs veh, DIAPH2 / RFU, SKA2 / Fold change vs veh, SKA2 / RFU, AFF3 / Fold change vs veh, AFF3 / RFU, LMF1 / Fold change vs veh, LMF1 / RFU, IPO11 / Fold change vs veh, IPO11 / RFU, DFFB / Fold change vs veh, DFFB / RFU, FOXP1 / Fold change vs veh, FOXP1 / RFU, CARD8 / Fold change vs veh, CARD8 / RFU, STRN3 / Fold change vs veh, STRN3 / RFU, ADK / Fold change vs veh, ADK / RFU, RASSF2 / Fold change vs veh, RASSF2 / RFU, WIPF1 / Fold change vs veh, WIPF1 / RFU, LARP1B / Fold change vs veh, LARP1B / RFU, RASA1 / Fold change vs veh, RASA1 / RFU, RB1 / Fold change vs veh, RB1 / RFU, PPFIA1 / Fold change vs veh, PPFIA1 / RFU, MAT2A / Fold change vs veh, MAT2A / RFU, CCT5 / Fold change vs veh, CCT5 / RFU, WDR92 / Fold change vs veh, WDR92 / RFU, CUX1 / Fold change vs veh, CUX1 / RFU, TTC7A / Fold change vs veh, TTC7A / RFU, TMEM135 / Fold change vs veh, TMEM135 / RFU, DEPTOR / Fold change vs veh, DEPTOR / RFU, CPM / Fold change vs veh, CPM / RFU, DNAJB6 / Fold change vs veh, DNAJB6 / RFU, CACNA2D3 / Fold change vs veh, CACNA2D3 / RFU, DTX4 / Fold change vs veh, DTX4 / RFU, TFCP2 / Fold change vs veh, TFCP2 / RFU, GMCL1 /// GMCL1P1 / Fold change vs veh, GMCL1 /// GMCL1P1 / RFU, AEBP2 / Fold change vs veh, AEBP2 / RFU, SNHG1 /// SNORD22 /// SNORD25 /// SNORD26 /// SNORD27 /// SNORD28 /// SNORD29 /// SNORD31 / Fold change vs veh, SNHG1 /// SNORD22 /// SNORD25 /// SNORD26 /// SNORD27 /// SNORD28 /// SNORD29 /// SNORD31 / Fold change (Aza/veh), C12orf56 (ProbeSet 11735607_a_at) / Fold change (ACY-1035/veh), C12orf56 (ProbeSet 11735607_a_at) / Fold change (Aza/veh), FGFR1OP (ProbeSet 11751329_s_at) / Fold change (ACY-1035/veh), FGFR1OP (ProbeSet 11751329_s_at) / Fold change (Aza/veh), VPS36 (ProbeSet 11739960_a_at) / Fold change (ACY-1035/veh), VPS36 (ProbeSet 11739960_a_at) / RFU SYPL1 (11715823_x_at) / Fold change /veh SYPL1 (11715823_x_at) / RFU IGFBP7 (11715501_s_at) / Fold change /veh IGFBP7 (11715501_s_at) / RFU REEP3 (11722064_at) / Fold change /veh REEP3 (11722064_at) / RFU IGLL1 (11728026_x_at) / Fold change /veh IGLL1 (11728026_x_at): dose or concentration left out as unconfirmed", "details": "MV-4-11 cells, 48 hours", "data": [{"smiles": "Nc1ccc(-c2cccs2)cc1NC(=O)c1ccc2c(c1)cc(C1CC1)n2CCN1CCOCC1", "note": "[ACY-1035]", "values": [{"measurement": "Fold change /veh ECM1 (11717891_a_at)", "result": 0.95}]}]}
